Test results taken from publication PMC6274087, “New Phragmalin-Type Limonoids from Chukrasia tabularis and Their α-Glucosidase Inhibitory Activity” (Molecules, 2016).

Assays:
[1] = test system: α-glucosidase; experiment: in vitro α-glucosidase inhibitory assay (4-nitrophenyl-α-D-glucopyranoside substrate, OD at 405 nm); settings: for α-glucosidase inhibitory activity (result in words): bioactivity screening; for IC50: read-out: IC50 Value, α-glucosidase inhibitory activity, mean ± SD of triplicate experiments, acarbose as positive control
Method: The optimized procedure was as follows: 20 μL of 0.2 U/mL α-glucosidase has been added into 0.1mM potassium phosphate buffer (pH 6.8, 112 μL), then mixed with the testing sample (8 μL). After being preincubated at 37 °C for 15 min, 20 μL of 2.5 mmol/L 4-nitrophenyl-α-D-glucopyranoside was added and then mixed. The reaction was carried out at 37 °C for 15 min and stopped by adding 0.2 M solution of Na2CO3 (80 μL). The optical density values of the reaction mixture were the mean values of three measurements, which were performed at 405 nm wavelength.

Question: Which results are given for COC(=O)C(OC(C)=O)C1C2(C)CC3(O)C(O)(C2OC(C)=O)C2OC4(C(C)C)OC5(C(OC(C)=O)C(OC(C)=O)C67CC6(C(OC(C)=O)C(=O)OC7c6ccoc6)C25O4)C13C (stereo not drawn) [Compound 4, Chukbularisin D]?
Answer: melting point: 190 to 191 °C; α-glucosidase inhibitory activity (result in words) [1]: showed inhibitory activities; IC50 [1]: 520 ± 39 µM

Question: Which results are given for CC(=O)OC1C2(C)CC34OC5(C)OC6(C7CC(=O)OC(c8ccoc8)C7(C)CCC6(O5)C35OC(=O)CC25)C(OC(=O)C(C)C)C14O (stereo not drawn) [Compound 2, Chukbularisin B]?
Answer: melting point: 185 to 186 °C; α-glucosidase inhibitory activity (result in words) [1]: showed inhibitory activities; IC50 [1]: 60 ± 8 µM

Question: With CC(=O)OC(C1=CC(O)OC1=O)C1(C)C(OC(C)=O)C(OC(C)=O)C2(O)C34OC(C)(CC13)OC4C1(OC(C)=O)C(OC(C)=O)C3(C)CC1(O)C21COC(=O)CC31 (stereo not drawn) [Compound 1, Chukbularisin A] as the compound, how does the melting point read?
Answer: 201 to 203 °C

Question: With COC(=O)CC1C2(C)CC3(O)C(O)(C2OC(C)=O)C(OC(=O)C(C)C)C24OC5(C)OC(C(OC(C)=O)C67CC62C(OC(=O)C(C)C)C(=O)OC7c2ccoc2)C4(O5)C13C (stereo not drawn) [Compound 3, Chukbularisin C] as the compound, how does the melting point read?
Answer: 198 to 199 °C

Question: And the “α-glucosidase inhibitory activity (result in words)” value (“α-glucosidase inhibitory activity” for short) [1]?
Answer: showed inhibitory activities

Question: What about the IC50 [1] of the same compound?
Answer: 40 ± 2 µM

Question: With COC(=O)C(OC(C)=O)C1C2(C)CC3(O)C(OC(=O)C(C)C)(C2OC(C)=O)C2OC4(C)OC5(C(OC(C)=O)C(OC(C)=O)C67CC6(C(OC(C)=O)C(=O)OC7c6ccoc6)C25O4)C13C (stereo not drawn) [Compound 5, Chukbularisin E] as the compound, how does the melting point read?
Answer: 208 to 209 °C

Question: What about the “α-glucosidase inhibitory activity” value [1] of the same compound?
Answer: showed inhibitory activities

Question: What about the IC50 [1] of the same compound?
Answer: 1090 ± 40 µM

Question: For COC(=O)C(OC(C)=O)C1C2(C)CC34OC5(C)OC6(C(O)C(OC(C)=O)C78CC7(C(OC(C)=O)C(=O)OC8c7ccoc7)C6(O5)C(OC(=O)C(C)C)C3(O)C2OC(C)=O)C14C (stereo not drawn) [Compound 8, chubularisin K], which “α-glucosidase inhibitory activity” value [1] is on record?
Answer: showed inhibitory activities

Question: What about the IC50 [1] of the same compound?
Answer: 200 ± 57 µM
